Assay results reported in the supplement of paper PMC13380429.

Columns and labels:
Conditions in all cases: 72 h
Calu-3 [1] = assay: cell viability relative to DMSO; higher = less toxic
U2OS [2] = assay: as above
Vero E6 [3] = assay: as above
HepG2 [4] = assay: as above
Caco-2 [5] = assay: as above
Calu-3 [6] = assay: relative viability EC50 (midpoint between 100% and the lowest measured viability); higher = less toxic
U2OS [7] = assay: as above
Vero E6 [8] = assay: as above
HepG2 [9] = assay: as above
Caco-2 [10] = assay: as above
Calu-3 [11] = assay: drug sensitivity score (DSS) for viability; higher = more toxic; extreme values may be limits of the assay
U2OS [12] = assay: as above
Vero E6 [13] = assay: as above
HepG2 [14] = assay: as above
Caco-2 [15] = assay: as above

Structure (SMILES) | cell viability (Calu-3 [1]; 1 nM) | cell viability (Calu-3 [1]; 10 nM) | cell viability (Calu-3 [1]; 100 nM) | cell viability (Calu-3 [1]; 1000 nM) | cell viability (Calu-3 [1]; 10000 nM) | cell viability (U2OS [2]; 1 nM) | cell viability (U2OS [2]; 10 nM) | cell viability (U2OS [2]; 100 nM) | cell viability (U2OS [2]; 1000 nM) | cell viability (U2OS [2]; 10000 nM) | cell viability (Vero E6 [3]; 1 nM) | cell viability (Vero E6 [3]; 10 nM) | cell viability (Vero E6 [3]; 100 nM) | cell viability (Vero E6 [3]; 1000 nM) | cell viability (Vero E6 [3]; 10000 nM) | cell viability (HepG2 [4]; 1 nM) | cell viability (HepG2 [4]; 10 nM) | cell viability (HepG2 [4]; 100 nM) | cell viability (HepG2 [4]; 1000 nM) | cell viability (HepG2 [4]; 10000 nM) | cell viability (Caco-2 [5]; 1 nM) | cell viability (Caco-2 [5]; 10 nM) | cell viability (Caco-2 [5]; 100 nM) | cell viability (Caco-2 [5]; 1000 nM) | cell viability (Caco-2 [5]; 10000 nM) | relative viability EC50 (Calu-3 [6]) | relative viability EC50 (U2OS [7]) | relative viability EC50 (Vero E6 [8]) | relative viability EC50 (HepG2 [9]) | relative viability EC50 (Caco-2 [10]) | drug sensitivity score (Calu-3 [11]) | drug sensitivity score (U2OS [12]) | drug sensitivity score (Vero E6 [13]) | drug sensitivity score (HepG2 [14]) | drug sensitivity score (Caco-2 [15])
Cn1ncc2c(N3CCOCC3)nc(-c3cccc(O)c3)nc21 | 86.3% | 102% | 83.7% | 79.1% | 24.5% | 98.8% | 99.6% | 99.3% | 90.6% | 28.9% | 100% | 102% | 98.9% | 78% | 30.9% | 100% | 101% | 111% | 95.6% | 19.8% | 99.9% | 108% | 94.5% | 61.5% | 25.2% | 1.64 µM | 2.1 µM | 1.35 µM | 2.74 µM | 0.938 µM | 6.7 | 5.5 | 7 | 5.1 | 8.7
CC(=O)OCC(=O)[C@@]1(O)CC[C@H]2[C@@H]3CCC4=CC(=O)CC[C@]4(C)[C@H]3C(=O)C[C@@]21C [cortisone-acetate] | 93.2% | 98.5% | 98.9% | 106% | 101% | 99.6% | 98.1% | 97% | 101% | 95.1% | 87.9% | 97.5% | 96.4% | 101% | 99.3% | 90% | 110% | 104% | 110% | 101% | 108% | 95.4% | 101% | 96.3% | 103% | > 10 µM | > 10 µM | > 10 µM | > 10 µM | > 10 µM | 0 | 0 | 0 | 0 | 0
Oc1cc2c(cc1O)[C@H](Cc1cccc3ccccc13)NCC2 [CKD-712] | 105% | 95% | 108% | 105% | 102% | 101% | 93.8% | 98.6% | 112% | 96.6% | 102% | 100% | 100% | 99% | 95.7% | 106% | 101% | 97.9% | 99.7% | 84.8% | 88.6% | 94.2% | 105% | 98.4% | 92.4% | > 10 µM | > 10 µM | > 10 µM | > 10 µM | > 10 µM | 0 | 0 | 0 | 0.3 | 0
c1ccc(Cn2c(-c3ccc(OC[C@H](C4CCNCC4)n4c(-c5ccccc5)nc5ccccc54)cc3)nc3ccccc32)cc1 [deltarasin] | 105% | 102% | 102% | 107% | 0.1% | 99.9% | 93.9% | 98.7% | 99.9% | -0.3% | 92.9% | 99.3% | 94% | 95.4% | -0.1% | 99.7% | 100% | 95% | 110% | -0.3% | 98.6% | 87.8% | 104% | 95.9% | 2.1% | 3.51 µM | 3.14 µM | 2.8 µM | 3.62 µM | 2.85 µM | 5.1 | 5.6 | 6.2 | 4.9 | 6
